pEC50: −log10 of the molar value.
System: N-myc protein
Assay: In-cell immunostaining assay for decrease of N-myc protein level in neuroblastoma cells
Format: cell-based
Conditions: human neuroblastoma cell lines (Kelly, IMR32, SK-N-BE(2)); treated overnight or up to 3 days; N-myc signal normalized over total protein; read-out: Activity (EC50 for decreasing N-myc protein level)
Experimental: Human neuroblastoma cell lines were obtained from either Millipore Sigma, St. Louis, MO (Kelly cells) or American Type Culture Collection, Manassas, VA (IMR32 and SK-N-BE(2) cells). Cells were cultured in RPMI1640 medium (Corning, New York, NY), supplemented with 10% fetal bovine serum, 100 unit/mL penicillin and 100 μg/mL streptomycin (Corning, New York, NY) at 37 degree Celsius with 5% CO2 in air atmosphere. Cells cultured in flat clear bottom, black 96-well plates (Corning, New York, NY) were treated with different concentrations of a compound of the invention, which was dissolved in the culture media (200 μL/well), overnight or up to 3 days. Cells were fixed with 4% paraformaldehyde (in Phosphate-Buffered Saline or PBS, 100 μL/well) for 30 minutes at room temperature. Cells were briefly washed three times with PBS afterwards, and then treated with PBS containing 0.1% Triton X-100 (100 μL/well) for 30 minutes at room temperature. For […], cells were further treated with PBS containing 0.01% IRDye 700DX NHS Ester (LI-COR Biosciences, Lincoln, NE. 100 μL/well) for 30 minutes at room temperature. Cells were again washed three times with PBS, and then treated with a Tris-buffered saline solution with 0.1% Tween 20 (TBST) and 5% non-fat milk (50 μL/well) for 1 hour at room temperature. Cells were then treated with TBST with 5% non-fat milk (50 μL/well) containing a mouse anti N-Myc antibody (Clone B8.4.B, 1:500 dilution, Santa Cruz Biotechnology, Santa Cruz, CA), or a combination of a rabbit anti-Histone H3 (phospho S10) antibody (Clone EPR17246, 1:10000 dilution, abcam, Cambridge, MA) and a mouse anti-Histone H3 antibody (Clone 1G1, 1:250 dilution, Santa Cruz Biotechnology, Santa Cruz, CA) overnight at 4 degree Celsius in the dark. Cells were washed three times with TBST, and then treated with TBST with 5% non-fat milk (50 μL/well) containing an IRDye 800CW donkey anti-mouse IgG antibody (1:1000 dilution, LI-COR Biosciences, Lincoln, NE) for N-myc staining, or IRDye® 800CW donkey anti-rabbit IgG and IRDye 680RD donkey anti-mouse IgG antibodies (1:1000 dilution, LI-COR Biosciences, Lincoln, NE) for Histone H3 (phospho S10) and Histone H3 staining, incubated for 1 hour at room temperature in the dark. Cells were then washed four times with TBST and the plate was scanned using an Odyssey 9120 Imaging System (LI-COR Biosciences, Lincoln, NE). Signals for N-myc, total protein, Histone H3 (phospho S10), and Histone H3 were obtained from the images using the ImageStudio software (Version 4.0.21, LI-COR Biosciences, Lincoln, NE). Normalized signals for N-myc (over total protein), and Histone H3 (phospho S10) (over Histone H3) were plotted in Prism 7 software (GraphPad Software, San Diego, CA). A four-parameter dose-response curve was fitted using a variable slope model and the EC50 was calculated in Prism 7 software (GraphPad Software, San Diego, CA).

Row | Compound | pEC50
1 | Cc1nc(NC(=O)C2(C(=O)Nc3cccc(C(F)(F)F)c3)CC2)sc1C(=O)Nc1cc(C(F)(F)F)ccc1Cl [SSTA-0168, N-(5-((2-chloro-5-(trifluoromethyl)phenyl)carbamoyl)-4-methylthiazol-2-yl)-N-(3-(trifluoromethyl)phenyl)cyclopropane-1,1-dicarboxamide] | < 6.00
2 | O=C(Nc1ccc(Cl)c(Cl)c1)c1sc(NC(=O)C2(C(=O)Nc3ccc(F)cc3)CC2)nc1C1CC1 | < 6.00
3 | Cc1nc(NC(=O)C2(C(=O)Nc3ccc(F)cc3F)CC2)sc1C(=O)Nc1cc(C(F)(F)F)ccc1Cl [SSTA-0248, N-(5-((2-chloro-5-(trifluoromethyl)phenyl)carbamoyl)-4-methylthiazol-2-yl)-N-(2,4-difluorophenyl)cyclopropane-1,1-dicarboxamide] | < 6.00
4 | COc1cc(F)cc(NC(=O)C2(C(=O)Nc3nc(C)c(C(=O)Nc4cc(C(F)(F)F)ccc4Cl)s3)CC2)c1 [SSTA-0241, N-(5-((2-chloro-5-(trifluoromethyl)phenyl)carbamoyl)-4-methylthiazol-2-yl)-N-(3-fluoro-5-methoxyphenyl)cyclopropane-1,1-dicarboxamide] | 6.00 to 6.60
5 | Cc1nc(NC(=O)C2(C(=O)Nc3ccc(F)cc3)CC2)oc1C(=O)Nc1ccc(Cl)c(Cl)c1 [SSTA-0191, N-(5-((3,4-dichlorophenyl)carbamoyl)-4-methyloxazol-2-yl)-N-(4-fluorophenyl)cyclopropane-1,1-dicarboxamide] | < 6.00
6 | Cc1nc(NC(=O)C2(C(=O)Nc3cc(F)ccn3)CC2)sc1C(=O)Nc1cc(C(F)(F)F)ccc1Cl [SSTA-0252, N-(5-((2-chloro-5-(trifluoromethyl)phenyl)carbamoyl)-4-methylthiazol-2-yl)-N-(4-fluoropyridin-2-yl)cyclopropane-1,1-dicarboxamide] | < 6.00
7 | Cc1nc(-c2ccc(NC(=O)C3(C(=O)Nc4nc(C)c(C(=O)Nc5cc(C(F)(F)F)ccc5Cl)s4)CC3)cc2)no1 [SSTA-0229, N-(5-((2-chloro-5-(trifluoromethyl)phenyl)carbamoyl)-4-methylthiazol-2-yl)-N-(4-(5-methyl-1,2,4-oxadiazol-3-yl)phenyl)cyclopropane-1,1-dicarboxamide] | < 6.00
8 | Cc1nc(NC(=O)C2(C(=O)Nc3cc(F)ccc3F)CC2)sc1C(=O)Nc1cc(C(F)(F)F)ccc1Cl [SSTA-0239, N-(5-((2-chloro-5-(trifluoromethyl)phenyl)carbamoyl)-4-methylthiazol-2-yl)-N-(2,5-difluorophenyl)cyclopropane-1,1-dicarboxamide] | < 6.00
9 | Cc1nc(NC(=O)C2(C(=O)Nc3cc(F)cc(Cl)c3)CC2)sc1C(=O)Nc1cc(C(F)(F)F)ccc1Cl [SSTA-0237, N-(5-((2-chloro-5-(trifluoromethyl)phenyl)carbamoyl)-4-methylthiazol-2-yl)-N-(3-chloro-5-fluorophenyl)cyclopropane-1,1-dicarboxamide] | 6.00 to 6.60
10 | Cc1nc(NC(=O)C2(C(=O)Nc3ccc(F)cc3OC(C)C)CC2)sc1C(=O)Nc1cc(C(F)(F)F)ccc1Cl [SSTA-0242, N-(5-((2-chloro-5-(trifluoromethyl)phenyl)carbamoyl)-4-methylthiazol-2-yl)-N-(4-fluoro-2-isopropoxyphenyl)cyclopropane-1,1-dicarboxamide] | < 6.00
11 | COc1c(F)cccc1NC(=O)C1(C(=O)Nc2nc(C)c(C(=O)Nc3cc(C(F)(F)F)ccc3Cl)s2)CC1 [SSTA-0240, N-(5-((2-chloro-5-(trifluoromethyl)phenyl)carbamoyl)-4-methylthiazol-2-yl)-N-(3-fluoro-2-methoxyphenyl)cyclopropane-1,1-dicarboxamide] | < 6.00
12 | N-(5-((2-chloro-5-(trifluoromethyl)phenyl)carbamoyl)-4-methylthiazol-2-yl)-N-(3-fluoro-5-(trifluoromethyl)phenyl)cyclopropane-1,1-dicarboxamide [SSTA-0233] | 6.00 to 6.60
13 | O=C(Nc1cc(C(F)(F)F)ccc1Cl)c1sc(NC(=O)C2(C(=O)Nc3cc(F)cc(F)c3)CC2)nc1C1CC1 [SSTA-0263, N-(5-((2-chloro-5-(trifluoromethyl)phenyl)carbamoyl)-4-cyclopropylthiazol-2-yl)-N-(3,5-difluorophenyl)cyclopropane-1,1-dicarboxamide] | > 6.60
14 | COc1cc(NC(=O)C2(C(=O)Nc3nc(C)c(C(=O)Nc4cc(C(F)(F)F)ccc4Cl)s3)CC2)cc(C(F)(F)F)c1 [SSTA-0234, N-(5-((2-chloro-5-(trifluoromethyl)phenyl)carbamoyl)-4-methylthiazol-2-yl)-N-(3-methoxy-5-(trifluoromethyl)phenyl)cyclopropane-1,1-dicarboxamide] | 6.00 to 6.60
15 | O=C(Nc1ccc(Cl)c(Cl)c1)c1sc(NC(=O)C2(C(=O)Nc3ccc(F)cc3)CC2)nc1-c1ccccc1 | < 6.00
16 | O=C(Nc1cc(C(F)(F)F)ccc1Cl)c1sc(NC(=O)C2(C(=O)Nc3cc(F)cc(C(F)(F)F)c3)CC2)nc1C1CC1 [SSTA-0264, N-(5-((2-chloro-5-(trifluoromethyl)phenyl)carbamoyl)-4-cyclopropylthiazol-2-yl)-N-(3-fluoro-5-(trifluoromethyl)phenyl)cyclopropane-1,1-dicarboxamide] | > 6.60
17 | Cc1nc(NC(=O)C2(C(=O)Nc3cc(Cl)cc(C(F)(F)F)c3)CC2)sc1C(=O)Nc1cc(C(F)(F)F)ccc1Cl [SSTA-0251, N-(3-chloro-5-(trifluoromethyl)phenyl)-N-(5-((2-chloro-5-(trifluoromethyl)phenyl)carbamoyl)-4-methylthiazol-2-yl)cyclopropane-1,1-dicarboxamide] | 6.00 to 6.60
18 | Cc1nc(NC(=O)C2(C(=O)Nc3ccccc3Cl)CC2)sc1C(=O)Nc1cc(C(F)(F)F)ccc1Cl [SSTA-0170, N-(5-((2-chloro-5-(trifluoromethyl)phenyl)carbamoyl)-4-methylthiazol-2-yl)-N-(2-chlorophenyl)cyclopropane-1,1-dicarboxamide] | < 6.00
19 | COCc1nc(NC(=O)C2(C(=O)Nc3ccc(Cl)c(F)c3)CC2)sc1C(=O)Nc1cc(C(F)(F)F)ccc1Cl [SSTA-0262, N-(4-chloro-3-fluorophenyl)-N-(5-((2-chloro-5-(trifluoromethyl)phenyl)carbamoyl)-4-(methoxymethyl)thiazol-2-yl)cyclopropane-1,1-dicarboxamide] | 6.00 to 6.60
20 | Cc1nc(NC(=O)C2(C(=O)Nc3ccc(F)cc3Cl)CC2)sc1C(=O)Nc1cc(C(F)(F)F)ccc1Cl [SSTA-0247, N-(2-chloro-4-fluorophenyl)-N-(5-((2-chloro-5-(trifluoromethyl)phenyl)carbamoyl)-4-methylthiazol-2-yl)cyclopropane-1,1-dicarboxamide] | < 6.00
21 | Cc1nc(NC(=O)C2(C(=O)Nc3cc(C(F)(F)F)ccc3Cl)CC2)sc1C(=O)Nc1cc(C(F)(F)F)ccc1Cl [SSTA-0250, N-(2-chloro-5-(trifluoromethyl)phenyl)-N-(5-((2-chloro-5-(trifluoromethyl)phenyl)carbamoyl)-4-methylthiazol-2-yl)cyclopropane-1,1-dicarboxamide] | 6.00 to 6.60
22 | Cc1nc(NC(=O)C2(C(=O)Nc3cccc(F)c3)CC2)sc1C(=O)Nc1cc(C(F)(F)F)ccc1Cl [SSTA-0171, N-(5-((2-chloro-5-(trifluoromethyl)phenyl)carbamoyl)-4-methylthiazol-2-yl)-N-(3-fluorophenyl)cyclopropane-1,1-dicarboxamide] | < 6.00
23 | Cc1nc(NC(=O)C2(C(=O)Nc3ccc(F)c(F)c3)CC2)sc1C(=O)Nc1cc(C(F)(F)F)ccc1Cl [SSTA-0238, N-(5-((2-chloro-5-(trifluoromethyl)phenyl)carbamoyl)-4-methylthiazol-2-yl)-N-(3,4-difluorophenyl)cyclopropane-1,1-dicarboxamide] | 6.00 to 6.60
24 | Cc1nc(NC(=O)C2(C(=O)Nc3ccc(Cl)c(F)c3)CC2)sc1C(=O)Nc1cc(C(F)(F)F)ccc1Cl [SSTA-0236, N-(4-chloro-3-fluorophenyl)-N-(5-((2-chloro-5-(trifluoromethyl)phenyl)carbamoyl)-4-methylthiazol-2-yl)cyclopropane-1,1-dicarboxamide] | 6.00 to 6.60
